Converted amounts (≈) assume the structure as drawn. Read-outs that look alike come from different tables or passages of the source.
What was measured:
[1] = Solubility determination in water by HPLC; assay type: physicochemical; conditions: suspension in water, 25° C.
Experimental: HPLC detection was performed using the crystalline form 1 as a standard, with its concentration of 204.2 μg*mL^−1 and its content set as 100%, and the detection was performed 7 times. The average peak area was 159.691 mAU*min (retention time was 7.4 min).

[2] = Stability of the crystalline forms (HPLC, XRD, DSC); assay type: physicochemical; conditions: for HPLC Maximum single impurity %: retention time (min) in brackets; for crystalline form and melting point by XRD and DSC: sealed 80° C. 24 hours, open dish 25° C./60% RH and 40° C./75% RH for 7 days
Experimental: Experimental conditions: the samples were sealed and placed at 80° C. for 24 hours, and then placed in an open dish at 25° C./60% RH (relative humidity) and 40° C./75% RH for 7 days. Detection method: HPLC (only for the starting samples and samples placed at 80° C. for 24 hours), XRD, DSC.
In addition, the long-term stabilities of the crystalline form 1 for 12 months, 24 months, 36 months, and 48 months at 25° C./60% RH were also investigated.

[3] = Thermodynamic stability experiment in solvents at 60° C. (XRD); assay type: physicochemical; conditions: one day
Experimental: The crystalline form 1, crystalline form 2, crystalline form 3 and crystalline form 7 of the compound of formula I were mixed with acetone, ethyl acetate, methanol, water and tetrahydrofuran respectively, and then kept at 60° C. for one day for the investigation of the thermodynamic stability of each crystalline form. Insoluble solid was recovered by filtration and analyzed by XRD. Analysis conditions: Shimadzu XRD-6000, CuK source (1.54056 A) 40 kV, 30 mA; detection angle: 5-50°, speed: 5°/min.

[4] = Tissue accumulation experiment in tumor-bearing mice; assay type: in vivo, BALB/cA nude mice; design: content in Tumor / content in Liver / content in Kidney / content in Heart / content in Lung / content in Muscle / content in Brain: unit not given here; conditions: 40 mg/kg for 21 days (crystalline form 1 twice a day, sunitinib once a day); 4 hours after administration on day 22
Experimental: Human colon cancer H-29 cells were implanted into the armpits of BALB/cA nude mice. Seven days after the implantation of H-29 cells, 8 female mice were administered with the crystalline form 1 (twice a day) at 40 mg/kg or sunitinib at 40 mg/kg (once a day). The drug administration was continuous for 21 days. Plasma, tissue and tumor samples were collected for analysis 4 hours after the administration on the 22nd day morning.

[5] = Dissolution rate of crystalline forms 1 and 2; assay type: physicochemical
From the text: (§1) The moisture content, solubility and dissolution rate of the crystalline forms 1 and 2 were detected using the methods described above. The results are shown in Table 21, which indicate that the solubility, dissolution, and moisture content (total pharmaceutical properties) of the crystalline form 1 are higher than that of the crystalline form 2. Moreover, the crystalline forms 1 and 2 have the highest solubility in methanol.

[6] = Pharmacokinetic experiment, oral administration; assay type: in vivo, Sprague Dawley rats; conditions: rat, 10 mg/kg, suspension in 0.5% CMC
Experimental: Twelve Sprague Dawley rats with weight of 230-250 g were randomly divided into 2 groups, wherein each group consisted of 3 males and 3 females. Crystalline forms 1 and 2 were separately prepared as suspensions in 0.5% carboxymethylcellulose (CMC). The rats were fasted for 12 hours with free access to water and then orally administered at a dose of 10 mg/kg. Blood samples (0.2-0.3 ml) before and after 15, 30, 60, 120, 240, 360, 480, 720, 1440 minutes of the oral administration were collected in heparin anticoagulation tubes, which were then centrifuged to obtain plasma. The plasma was stored at −20° C., followed by analysis using API 4000 MS in conjunction with a HPLC unit. The pharmacokinetic parameters Cmax and AUC were calculated according to the determined plasma concentrations and summarized in Table 22.

[7] = Dynamic vapor sorption (DVS) / moisture absorption; assay type: physicochemical
Experimental: (4) Dynamic Water Adsorption (DVS), TA Instruments Q5000 TGA; controlling software: Thermal Advantage; analysis software: Universal Analysis; sample plate: platinum crucible; amount of the sample to be detected: 1-10 mg; protective gas: nitrogen; gas flow fate: 10 mL/min; detection method: equilibration at 25° C., humidity: 0%, isothermal treatment: 90 min, weight change to be detected: from 0% RH to 80% RH;
as §1

[8] = Solubility of crystalline forms 1 and 2 in various media; assay type: physicochemical
From the text: as §1

[9] = acetone, ethyl acetate, methanol or water, conversion not complete in methanol

With Cc1[nH]c(/C=C2\C(=O)Nc3ccc(F)cc32)c(C)c1C(=O)N[C@H]1CCN(C(=O)N(C)C)C1 [crystalline form 5, 5-[5-fluoro-2-oxo-1,2-dihydro-indole-(3Z)-ylidenemethyl]-2,4-dimethyl-1H-pyrrole-3-carboxylic acid ((S)-1-dimethylcarbamoyl-pyrrolidin-3-yl)-amide] the “concentration (solubility in water)” value ([1]; 0.5 hours) was 1.66 µg/mL, the “concentration (solubility in water)” value ([1]; 4 hours) was 0.42 µg/mL and the “HPLC Purity %” value ([2]; 0 day (starting sample)) was 99.86%. For the same molecule, the “HPLC Maximum single impurity %” value ([2]; 0 day (starting sample)) was 0.05 (8.82) %, the “crystalline form and melting point by XRD and DSC” value (shortened to “crystalline form and melting point”) [2] was “substantially unchanged” and the “HPLC Purity %” value ([2]; sealed, 80° C./24 h) was 98.80%. For the same molecule, the “HPLC Maximum single impurity %” value ([2]; sealed, 80° C./24 h) was 1.10 (4.73) %.
With Cc1[nH]c(/C=C2\C(=O)Nc3ccc(F)cc32)c(C)c1C(=O)N[C@H]1CCN(C(=O)N(C)C)C1 [crystalline form 6, 5-[5-fluoro-2-oxo-1,2-dihydro-indole-(3Z)-ylidenemethyl]-2,4-dimethyl-1H-pyrrole-3-carboxylic acid ((S)-1-dimethylcarbamoyl-pyrrolidin-3-yl)-amide] the “concentration (solubility in water)” value ([1]; 0.5 hours) was 0.29 µg/mL, the “concentration (solubility in water)” value ([1]; 4 hours) was 0.37 µg/mL and the “HPLC Purity %” value ([2]; 0 day (starting sample)) was 99.09%. For the same molecule, the “HPLC Maximum single impurity %” value ([2]; 0 day (starting sample)) was 0.80 (4.73) %, the “crystalline form and melting point” value [2] was “substantially unchanged” and the “HPLC Purity %” value ([2]; sealed, 80° C./24 h) was 99.12%. For the same molecule, the “HPLC Maximum single impurity %” value ([2]; sealed, 80° C./24 h) was 0.78 (4.73) %.
With Cc1[nH]c(/C=C2\C(=O)Nc3ccc(F)cc32)c(C)c1C(=O)N[C@H]1CCN(C(=O)N(C)C)C1 [crystalline form 3, 5-[5-fluoro-2-oxo-1,2-dihydro-indole-(3Z)-ylidenemethyl]-2,4-dimethyl-1H-pyrrole-3-carboxylic acid ((S)-1-dimethylcarbamoyl-pyrrolidin-3-yl)-amide] the “crystalline form recovered (XRD)” value [3, 9] was “converted to crystalline form 2”, the “crystalline form recovered (XRD)” value ([3]; tetrahydrofuran (THF)) was “to crystalline form 3” and the “concentration (solubility in water)” value ([1]; 0.5 hours) was 0.58 µg/mL. For the same molecule, the “concentration (solubility in water)” value ([1]; 4 hours) was 0.77 µg/mL, the “HPLC Purity %” value ([2]; 0 day (starting sample)) was 99.14% and the “HPLC Maximum single impurity %” value ([2]; 0 day (starting sample)) was 0.76 (4.73) %. The “crystalline form and melting point” value [2] was “substantially unchanged”, the “HPLC Purity %” value ([2]; sealed, 80° C./24 h) was 98.32% and the “HPLC Maximum single impurity %” value ([2]; sealed, 80° C./24 h) was 1.58 (4.73) %.
In the case of CCN(CC)CCNC(=O)c1c(C)[nH]c(/C=C2\C(=O)Nc3ccc(F)cc32)c1C [Sunitinib, reference compound], the “content in Brain” value [4] is reported as 333.9, the “content in Heart” value [4] is reported as 3,881.2 and the “content in Kidney” value [4] is reported as 14,852.0. The “content in Liver” value [4] was 14,816.6, the “content in Lung” value [4] was 15,713.5 and the “content in Muscle” value [4] was 1,483.2. The “content in Plasma” value [4] was 261.3 and the “content in Tumor” value [4] was 27,137.2.
For Cc1[nH]c(/C=C2\C(=O)Nc3ccc(F)cc32)c(C)c1C(=O)N[C@H]1CCN(C(=O)N(C)C)C1 [crystalline form 2, 5-[5-fluoro-2-oxo-1,2-dihydro-indole-(3Z)-ylidenemethyl]-2,4-dimethyl-1H-pyrrole-3-carboxylic acid ((S)-1-dimethylcarbamoyl-pyrrolidin-3-yl)-amide], the Internal dissolution rate [5] was 0.0062 mg/(min · cm^2), the “crystalline form recovered (XRD)” value [3, 9] was “converted to crystalline form 2” and the “crystalline form recovered (XRD)” value ([3]; tetrahydrofuran (THF)) was “to crystalline form 3”. For the same molecule, the “concentration (solubility in water)” value ([1]; 0.5 hours) was 0.19 µg/mL, the “concentration (solubility in water)” value ([1]; 4 hours) was 0.26 µg/mL and the AUC(0-t) ([6]; female, Sprague Dawley, plasma, po, female 1, read-out: AUC(0-t)) was 4340 ng·h/mL. The Cmax ([6]; female, Sprague Dawley, plasma, po, female 1, read-out: Cmax) was 317 ng/mL, the “AUC(0-t)” value ([6]; oral 10 mg/kg, average value) was 3320.9 ng·h/mL and the Cmax ([6]; oral 10 mg/kg, average value) was 313.8 ng/mL. For the same molecule, the “AUC(0-t)” value ([6]; oral 10 mg/kg, female 2) was 3899.2 ng·h/mL, the Cmax ([6]; oral 10 mg/kg, female 2) was 451.4 ng/mL and the “AUC(0-t)” value ([6]; oral 10 mg/kg, female 3) was 7850.6 ng·h/mL. For the same molecule, the Cmax ([6]; oral 10 mg/kg, female 3) was 614.6 ng/mL, the “AUC(0-t)” value ([6]; oral 10 mg/kg, male 1) was 1557.1 ng·h/mL and the Cmax ([6]; oral 10 mg/kg, male 1) was 204.4 ng/mL. For the same molecule, the “AUC(0-t)” value ([6]; oral 10 mg/kg, male 2) was 925.0 ng·h/mL, the Cmax ([6]; oral 10 mg/kg, male 2) was 114.7 ng/mL and the “AUC(0-t)” value ([6]; oral 10 mg/kg, male 3) was 1349.3 ng·h/mL. It also gave a Cmax ([6]; oral 10 mg/kg, male 3) of 180.4 ng/mL, a Moisture absorption ([7]; RH 50%) of 0.064% and a Moisture absorption ([7]; RH 80%) of 0.112%. The Solubility ([8]; 1% Tween 80) was 20 µg/mL (≈ 45.5 µM), the Solubility ([8]; 1% sodium lauryl sulfate) was 580 µg/mL (≈ 1320 µM) and the Solubility ([8]; 2% sodium lauryl sulfate) was 950 µg/mL (≈ 2160 µM). For the same molecule, the Solubility ([8]; PEG 400, organic solvent or mixture, thermodynamic from solid, PEG 400, read-out: Solubility) was 2670 µg/mL (≈ 6080 µM), the Solubility ([8]; acetonitrile) was 270 µg/mL (≈ 614 µM) and the Solubility ([8]; aqueous solution with pH of 1.0-7.5) was 0.0048 to 0.04 µg/mL. For the same molecule, the Solubility ([8]; ethanol, organic solvent or mixture, thermodynamic from solid, ethanol, read-out: Solubility) was 1940 µg/mL (≈ 4410 µM), the Solubility ([8]; glycerin) was 120 µg/mL (≈ 273 µM) and the Solubility ([8]; methanol) was 3500 µg/mL (≈ 7960 µM). The “HPLC Purity %” value ([2]; 0 day (starting sample)) was 97.76%, the “HPLC Maximum single impurity %” value ([2]; 0 day (starting sample)) was 2.15 (4.73) % and the “crystalline form and melting point” value [2] was “substantially unchanged”. The “HPLC Purity %” value ([2]; sealed, 80° C./24 h) was 98.95% and the “HPLC Maximum single impurity %” value ([2]; sealed, 80° C./24 h) was 0.96 (4.73) %.
In the case of Cc1[nH]c(/C=C2\C(=O)Nc3ccc(F)cc32)c(C)c1C(=O)N[C@H]1CCN(C(=O)N(C)C)C1 [crystalline form 7, 5-[5-fluoro-2-oxo-1,2-dihydro-indole-(3Z)-ylidenemethyl]-2,4-dimethyl-1H-pyrrole-3-carboxylic acid ((S)-1-dimethylcarbamoyl-pyrrolidin-3-yl)-amide], the “crystalline form recovered (XRD)” value [3, 9] is reported as “converted to crystalline form 2”, the “crystalline form recovered (XRD)” value ([3]; tetrahydrofuran (THF)) is reported as “to crystalline form 3” and the “concentration (solubility in water)” value ([1]; 0.5 hours) is reported as 0.52 µg/mL. For the same molecule, the “concentration (solubility in water)” value ([1]; 4 hours) was 0.61 µg/mL, the “HPLC Purity %” value ([2]; 0 day (starting sample)) was 99.28% and the “HPLC Maximum single impurity %” value ([2]; 0 day (starting sample)) was 0.58 (4.73) %. For the same molecule, the “crystalline form and melting point” value [2] was “substantially unchanged”, the “HPLC Purity %” value ([2]; sealed, 80° C./24 h) was 98.70% and the “HPLC Maximum single impurity %” value ([2]; sealed, 80° C./24 h) was 1.19 (4.73) %.
